Experimental data from patent publication US9273057B2 (Bristol-Myers Squibb Company, priority 2012, dated 2016).

biological target: CK2A1 (CK2α/β) (Homo sapiens, UniProt P68400); assay: CK2 kinase assay, CK2A1 (CK2α/β); type: biochemical; conditions: Table A; read-out: CK2A1 (CK2α/β) (IC50)
Sequence (P68400 whole entry, species assumed): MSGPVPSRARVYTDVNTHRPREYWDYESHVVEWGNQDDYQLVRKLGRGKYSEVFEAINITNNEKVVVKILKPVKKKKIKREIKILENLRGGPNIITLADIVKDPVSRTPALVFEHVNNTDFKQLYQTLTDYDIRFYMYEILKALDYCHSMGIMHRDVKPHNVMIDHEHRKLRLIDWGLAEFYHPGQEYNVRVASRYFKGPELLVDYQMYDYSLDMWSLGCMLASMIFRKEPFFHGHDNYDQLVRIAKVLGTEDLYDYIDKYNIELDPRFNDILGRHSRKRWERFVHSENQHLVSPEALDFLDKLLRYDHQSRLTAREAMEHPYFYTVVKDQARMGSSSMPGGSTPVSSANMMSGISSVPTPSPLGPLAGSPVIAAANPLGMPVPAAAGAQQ
Sequence (P67870 whole entry partner, species assumed): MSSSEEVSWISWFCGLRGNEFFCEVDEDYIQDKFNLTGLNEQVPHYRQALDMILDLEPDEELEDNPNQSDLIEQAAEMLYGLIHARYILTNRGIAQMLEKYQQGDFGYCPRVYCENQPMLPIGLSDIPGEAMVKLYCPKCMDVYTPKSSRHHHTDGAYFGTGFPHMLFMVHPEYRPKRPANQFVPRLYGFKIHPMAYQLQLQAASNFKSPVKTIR

| Structure (SMILES) | IC50 [nM] |
| --- | --- |
| COC(=O)N[C@@H]1CCN(c2cc(C#N)cc(Nc3nc(NC4CC4)c4ncc(C#N)n4n3)c2Cl)C[C@H]1OC(=O)CN1CCOCC1 [Example 196, (3R,4R)-1-(2-chloro-5-cyano-3-((7-cyano-4-(cyclopropylamino)imidazo[2,1-f][1,2,4]triazin-2-yl)amino)phenyl)-4-((methoxycarbonyl)amino)-3-piperidinyl 4-morpholinylacetate] | 0.8 |
| COC(=O)N[C@H]1CCN(c2cc(C#N)cc(Nc3nc(NC4CC4)c4ncc(C#N)n4n3)c2Cl)C[C@@H]1OC(=O)Cc1ccc(OP(=O)(O)O)cc1 [Example 199, (3S,4S)-1-(2-chloro-5-cyano-3-((7-cyano-4-(cyclopropylamino)imidazo[2,1-f][1,2,4]triazin-2-yl)amino)phenyl)-4-((methoxycarbonyl)amino)-3-piperidinyl (4-(phosphonooxy)phenyl)acetate] | 0.45 |
| COC(=O)Nc1cc(Nc2nc(NC3CC3)c3ncc(C#N)n3n2)c(Cl)c(N2CCN(C)CC2)c1 [Example 200, methyl (4-chloro-3-((7-cyano-4-(cyclopropylamino)imidazo[2,1-f][1,2,4]triazin-2-yl)amino)-5-(4-methylpiperazin-1-yl)phenyl)carbamate] | 2.51 |
| COC(=O)Nc1cc(Nc2nc(NC3CC3)c3ncc(C#N)n3n2)c(Cl)c(N2CC(N3CCC(OC)CC3)C2)c1 [Example 204, methyl (4-chloro-3-((7-cyano-4-(cyclopropylamino)imidazo[2,1-f][1,2,4]triazin-2-yl)amino)-5-(3-(4-methoxy-1-piperidinyl)-1-azetidinyl)phenyl)carbamate] | 0.87 |
| CN1CCC(c2cc(C#N)cc(Nc3nc(NC4CC4)c4ncc(C#N)n4n3)c2Cl)CC1 [Example 209, 2-(2-chloro-5-cyano-3-(1-methylpiperidin-4-yl)phenylamino)-4-(cyclopropylamino)imidazo[1,2,f][1,2,4]triazine-7-carbonitrile] | 0.56 |
| COCCN1CCC(c2cc(C#N)cc(Nc3nc(NC4CC4)c4ncc(C#N)n4n3)c2Cl)CC1 [Example 211, 2-(2-chloro-5-cyano-3-(1-(2-methoxyethyl)piperidin-4-yl)phenylamino)-4-(cyclopropylamino)imidazo[1,2-f][1,2,4]triazine-7-carbonitrile] | 0.9 |
| N#Cc1cc(Nc2nc(NC3CC3)c3ncc(C#N)n3n2)c(Cl)c(C2CCN(CC(F)F)CC2)c1 [Example 212, 2-(2-chloro-5-cyano-3-(1-(2,2-difluoroethyl)piperidin-4-yl)phenylamino)-4-(cyclopropylamino)imidazo[1,2-f][1,2,4]triazine-7-carbonitrile] | 0.78 |
| N#Cc1cc(Nc2nc(NC3CC3)c3ncc(C#N)n3n2)c(Cl)c(C2CCN(C3CCN(C4CC4)CC3)CC2)c1 [Example 213, 2-(2-chloro-5-cyano-3-(1′-cyclopropyl-1,4′-bipiperidin-4-yl)phenylamino)-4-(cyclopropylamino)imidazo[1,2-f][1,2,4]triazine-7-carbonitrile] | 4 |
| CCNc1nc(Nc2cc(C#N)cc(C3CCN(C[C@H](C)O)CC3)c2Cl)nn2c(C#N)cnc12 [Example 214, 2-((2-chloro-5-cyano-3-(1-((2S)-2-hydroxypropyl)-4-piperidinyl)phenyl)amino)-4-(ethylamino)imidazo[2,1-f][1,2,4]triazine-7-carbonitrile] | 4.55 |
| CC(C)(O)CN1CCC(c2cc(C#N)cc(Nc3nc(NC4CC4)c4ncc(C#N)n4n3)c2Cl)CC1 [Example 219, 2-((2-chloro-5-cyano-3-(1-(2-hydroxy-2-methylpropyl)-4-piperidinyl)phenyl)amino)-4-(cyclopropylamino)imidazo[2,1-f][1,2,4]triazine-7-carbonitrile] | 0.59 |
| N#Cc1cc(Nc2nc(NC3CC3)c3ncc(C#N)n3n2)c(Cl)c(C2CCN(C3CC4(COC4)C3)CC2)c1 [Example 222, 2-((2-chloro-5-cyano-3-(1-(2-oxaspiro[3.3]hept-6-yl)-4-piperidinyl)phenyl)amino)-4-(cyclopropylamino)imidazo[2,1-f][1,2,4]triazine-7-carbonitrile] | 1.17 |
| CC1(CN2CCC(c3cc(C#N)cc(Nc4nc(NC5CC5)c5ncc(C#N)n5n4)c3Cl)CC2)COC1 [Example 225, 2-((2-chloro-5-cyano-3-(1-((3-methyl-3-oxetanyl)methyl)-4-piperidinyl)phenyl)amino)-4-(cyclopropylamino)imidazo[2,1-f][1,2,4]triazine-7-carbonitrile] | 2 |

More lines, in order of falling IC50, values ahead:

| IC50 [nM] | Structure (SMILES) |
| --- | --- |
| 5 | COC(=O)N[C@@H]1CCN(c2cc(C#N)cc(Nc3nc(NC4CC4)c4ncc(C#N)n4n3)c2Cl)C[C@H]1OC(=O)C(C)OP(=O)(O)O (stereo partly drawn) [Example 197, (3R,4R)-1-(2-chloro-5-cyano-3-((7-cyano-4-(cyclopropylamino)imidazo[2,1-f][1,2,4]triazin-2-yl)amino)phenyl)-4-((methoxycarbonyl)amino)-3-piperidinyl 2-(phosphonooxy)propanoate] |
| 2.95 | COC(=O)Nc1cc(Nc2nc(NC3CC3)c3ncc(C#N)n3n2)c(Cl)c(N2CC(N3CCOCC3)C2)c1 [Example 201, methyl (4-chloro-3-((7-cyano-4-(cyclopropylamino)imidazo[2,1-f][1,2,4]triazin-2-yl)amino)-5-(3-(4-morpholinyl)-1-azetidinyl)phenyl)carbamate] |
| 1.95 | COC(=O)Nc1cc(Nc2nc(NC3CC3)c3ncc(C#N)n3n2)c(Cl)c(N2CCC(N3CCOCC3)CC2)c1 [Example 205, methyl (4-chloro-3-((7-cyano-4-(cyclopropylamino)imidazo[2,1-f][1,2,4]triazin-2-yl)amino)-5-(4-(4-morpholinyl)-1-piperidinyl)phenyl)carbamate] |
| 1.79 | COC(=O)Nc1cc(Nc2nc(NC3CC3)c3ncc(C#N)n3n2)c(Cl)c(N2CC(N3CCN(C)CC3)C2)c1 [Example 203, methyl (4-chloro-3-((7-cyano-4-(cyclopropylamino)imidazo[2,1-f][1,2,4]triazin-2-yl)amino)-5-(3-(4-methyl-1-piperazinyl)-1-azetidinyl)phenyl)carbamate] |
| 1.02 | C[C@H](O)CN1CCC(c2cc(C#N)cc(Nc3nc(NC4CC4)c4ncc(C#N)n4n3)c2Cl)CC1 [Example 216, (S)-2-(2-chloro-5-cyano-3-(1-(2-hydroxypropyl)piperidin-4-yl)phenylamino)-4-(cyclopropylamino)imidazo[1,2-f][1,2,4]triazine-7-carbonitrile] |
| 0.95 | [2H]C1(N2CCC(c3cc(C#N)cc(Nc4nc(NC5CC5)c5ncc(C#N)n5n4)c3Cl)CC2)COC1 [Example 223, 2-((2-chloro-5-cyano-3-(1-(3-~2~H)-3-oxetanyl-4-piperidinyl)phenyl)amino)-4-(cyclopropylamino)imidazo[2,1-f][1,2,4]triazine-7-carbonitrile] |
| 0.71 | N#Cc1cc(Nc2nc(NC3CC3)c3ncc(C#N)n3n2)c(Cl)c(C2CCN(C3COC3)CC2)c1 [Example 210, 2-((2-chloro-5-cyano-3-(1-(3-oxetanyl)-4-piperidinyl)phenyl)amino)-4-(cyclopropylamino)imidazo[2,1-f][1,2,4]triazine-7-carbonitrile] |
| 0.7 | N#Cc1cc(Nc2nc(NC3CC3)c3ncc(C#N)n3n2)c(Cl)c(C2CCN(CC(N)=O)CC2)c1 [Example 220, 2-[4-(2-chloro-5-cyano-3-{[7-cyano-4-(cyclopropylamino)imidazo[2,1-f][1,2,4]triazin-2-yl]amino}phenyl)piperidin-1-yl]acetamide] |
| 0.65 | COC(=O)N[C@H]1CCN(c2cc(C#N)cc(Nc3nc(NC4CC4)c4ncc(C#N)n4n3)c2Cl)C[C@@H]1OC(=O)/C=C/C(=O)O [Example 198, (2E)-4-(((3S,4S)-1-(2-chloro-5-cyano-3-((7-cyano-4-(cyclopropylamino)imidazo[2,1-f][1,2,4]triazin-2-yl)amino)phenyl)-4-((methoxycarbonyl)amino)-3-piperidinyl)oxy)-4-oxo-2-butenoic acid] |
| 0.62 | N#Cc1cc(Nc2nc(NC3CC3)c3ncc(C#N)n3n2)c(Cl)c(C2CCN(CC3CC3)CC2)c1 [Example 215, 2-((2-chloro-5-cyano-3-(1-(cyclopropylmethyl)-4-piperidinyl)phenyl)amino)-4-(cyclopropylamino)imidazo[2,1-f][1,2,4]triazine-7-carbonitrile] |
| 0.6 | N#Cc1cc(Nc2nc(NC3CC3)c3ncc(C#N)n3n2)c(Cl)c(C2CCN(C3CC[C@@H](N)[C@H](O)C3)CC2)c1 (stereo partly drawn) [Example 217, 2-((3-(1-((3R,4R)-4-amino-3-hydroxycyclohexyl)-4-piperidinyl)-2-chloro-5-cyanophenyl)amino)-4-(cyclopropylamino)imidazo[2,1-f][1,2,4]triazine-7-carbonitrile] |
| 0.59 | COCC(=O)N1CCC(c2cc(C#N)cc(Nc3nc(NC4CC4)c4ncc(C#N)n4n3)c2Cl)CC1 [Example 227, 2-((2-chloro-5-cyano-3-(1-(methoxyacetyl)-4-piperidinyl)phenyl)amino)-4-(cyclopropylamino)imidazo[2,1-f][1,2,4]triazine-7-carbonitrile] |
| 0.57 | N#Cc1cc(Nc2nc(NC3CC3)c3ncc(C#N)n3n2)c(Cl)c(C2CCNCC2)c1 [Example 208, 2-((2-chloro-5-cyano-3-(piperidin-4-yl)phenyl)amino)-4-(cyclopropylamino)imidazo[2,1-f][1,2,4]triazine-7-carbonitrile] |
| 0.51 | CC(=O)OC(C)(C)C(=O)N1CCC(c2cc(C#N)cc(Nc3nc(NC4CC4)c4ncc(C#N)n4n3)c2Cl)CC1 [Example 228, 2-(4-(2-chloro-5-cyano-3-((7-cyano-4-(cyclopropylamino)imidazo[2,1-f][1,2,4]triazin-2-yl)amino)phenyl)-1-piperidinyl)-1,1-dimethyl-2-oxoethyl acetate] |
| 0.48 | COC(=O)N1CCC(c2cc(C#N)cc(Nc3nc(NC4CC4)c4ncc(C#N)n4n3)c2Cl)CC1 [Example 226, methyl 4-(2-chloro-5-cyano-3-((7-cyano-4-(cyclopropylamino)imidazo[2,1-f][1,2,4]triazin-2-yl)amino)phenyl)piperidine-1-carboxylate] |
